Results on six compounds are retold here after patent publication US20220387958A1, “APPARATUS AND METHOD FOR ITERATIVE POLYMER SYNTHESIS” (BACHEM AG, priority 2019, published 2022).

Holding throughout (assay type): physicochemical
A short description of data set [1]: Flowability of amino acid derivative powders in unconfined state (rotating drum, mass flow through a funnel, angle of repose). The settings on record: powder, tests without confinement. The procedure: (§1) The flowability of 15 samples of amino acid powders was tested. The flowability of each powder in unconfined state was assessed by powder flow analysis in a rotating drum (“revolution analyzer”), by testing mass flow through a funnel, and by determining the angle of repose. The latter two measurements were performed according to chapter 1174 of the U.S. Pharmacopeia. The flowability of the samples at a confided state was analyzed by measurements with an annular shear cell and by using the Evolution Powder Tester device by PS Prozesstechnik GmbH, Basel. In these tests, the samples were initially densified with different pre-consolidation forces.

The nature of data set [2]: Flowability of amino acid derivative powders in confined state (annular shear cell, Evolution Powder Tester, pre-consolidation). The conditions noted are these: tests with confinement, densified with pre-consolidation forces. The procedure: as §1
Data set [3] in a line: Concentration in saturated dimethyl formamide solution by analytical RP-UHPLC. The settings on record: room temperature. Here is the method:
The concentration of the same amino acids in saturated solutions of dimethyl formamide at room temperature was determined by analytical reversed phase ultrahigh pressure liquid chromatography. The values ranged from below 200 mg/ml for Fmoc-Pro-OH over around 400 mg/ml for Fmoc-Ala-OH to above 600 mg/ml for Fmoc-Gly-OH.

Regarding `O=C(N[C@@H](CSC(c1ccccc1)(c1ccccc1)c1ccccc1)C(=O)O)OCC1c2ccccc2-c2ccccc21` [Fmoc-Cys(Trt)-OH], the flowability entry in data set [1] and in data set [2] was “good flowability” each time.

For the compound `O=C(O)CNC(=O)OCC1c2ccccc2-c2ccccc21` [Fmoc-Gly-OH], the flowability result was “good” in data set [1] and “poor flowability” in data set [2]. Moreover, in data set [3], the “concentration in saturated solution” value is recorded as “above 600 mg/ml”.

Take `C[C@H](NC(=O)OCC1c2ccccc2-c2ccccc21)C(=O)O` [Fmoc-Ala-OH]: the flowability result is given as “poor flowability parameters” in data set [1] and “Medium values” in data set [2]. The “concentration in saturated solution” value in data set [3] is on record as “around 400 mg/ml”.

As to `O=C(O)[C@@H]1CCCN1C(=O)OCC1c2ccccc2-c2ccccc21` [Fmoc-Pro-OH], the flowability entry in data set [1] is on record as “poor flowability parameters”; in data set [2] it was “good flowability”. For the same compound, in data set [3], the “concentration in saturated solution” value was “below 200 mg/ml”.

As to `CC(C)(C)OC(=O)NCCCC[C@H](NC(=O)OCC1c2ccccc2-c2ccccc21)C(=O)O` [Fmoc-Lys(Boc)-OH], the flowability entry in data set [2] is “poor flowability”.

For `CSCC[C@H](NC(=O)OCC1c2ccccc2-c2ccccc21)C(=O)O` [Fmoc-Met-OH], in data set [1], the flowability entry is recorded as “good flowability”.
